Laboratory results published in PMC4747952, “Development of TASP0410457 (TASP457), a novel dihydroquinolinone derivative as a PET radioligand for central histamine H3 receptors” (EJNMMI Research, 2016).
pIC50: −log10 of the molar value.

How the values were obtained:
[1] = biological target: T1, monkey H3Rs (Macaca mulatta, UniProt Q865E1); experiment: In vitro binding to H3Rs, monkey frontal cortex membranes, [^3H]N-α-methylhistamine; conditions: 1 nM [^3H]N-α-methylhistamine, geometric mean, n = 3, read-out: Affinity for H3Rs Monkey, IC50
T1 construct: Rat cerebral cortex and monkey frontal cortex were dissected; from tissue; host or cells: monkey frontal cortex membranes
Protocol: Rat cerebral cortex and monkey frontal cortex were dissected, homogenized with 50 mM Tris buffer (pH 7.4) containing 5 mM EDTA and Protease Inhibitor Cocktail Tablets (Roche Diagnostics, Indianapolis, IN) and centrifuged at 48,000×g for 15 min at 4 °C. The pellets were then suspended in binding buffer (50 mM Tris containing 5 mM EDTA, pH 7.4) and stored at −80 °C as membrane preparations.
The membrane preparations were thawed and incubated in the binding buffer containing 0.1 % bovine serum albumin, 1 nM [^3H]N-α-methylhistamine (PerkinElmer, Waltham, MA) with various concentrations of a dihydroquinolinone derivative (i.e., test compound) at 25 °C for 1 h. The reaction was terminated by rapid filtration through 96-well GF/C filter plates (PerkinElmer) presoaked with 0.5 % polyethyleneimine (Wako, Osaka, Japan). After washes with ice-cold binding buffer, the plates were dried and filled with Microscint-o (PerkinElmer). The radioactivity retained on the filters was counted using a TopCount NXT (PerkinElmer). Total and nonspecific radioligand binding was determined by reaction without and with 10 μM thioperamide and clobenpropit, respectively. The specific radioligand binding was then calculated by subtracting the nonspecific binding from the total binding. The IC50 value for inhibition of the radioligand binding by the test compound was determined using a nonlinear fit of the concentration-response curve for each test compound using SAS 9.2 (SAS Institute Inc., Cary, NC). Data were expressed as the geometric means of IC50 values from three independent experiments run in duplicate.

[2] = biological target: T2, Sigma 1 receptor (Homo sapiens, UniProt Q99720); experiment: Sigma 1 receptor binding, [3H]pentazocine; conditions: Jurkat cell membranes; 4 nM [3H]pentazocine; read-out: Off-target binding Sigma 1, IC50
T2 construct: The membrane preparations were made from Jurkat cell lines; endogenous in cells; host or cells: Jurkat
Protocol: H) 6.86 [d, J = 8.67 Hz, 2 H]; MS [ESI/APCI Dual) [Positive) m/z; 381(M+H)+ ) .
Off-target binding of compounds
The membrane preparations were made from Jurkat cell lines, and were incubated in sigma 1 binding buffer (0.1% bovine serum albumin in 50 mM Tris, pH7.4) containing 4 nM [3H]pentazocine (PerkinElmer), and serial concentrations of the compound at 25°C for 2.5 h. The reaction was terminated by rapid filtration through a 96-well GF/C filter plate presoaked in 0.5% polyethyleneimine.
The filters were washed with ice-cold 50 mM Tris (pH7.4) three times, dried, and filled with Microscint-o. The radioactivity retained on the filter was counted using a TopCount NXT. Nonspecific binding was determined as the amount of radioactivity under the above-mentioned conditions in the presence of […] of haloperidol. The IC50 values were determined by nonlinear curve-fitting of the concentration-response data for each compound using Origin version 6.1087 (OriginLab Corporation, […]
Adrenergic 2c receptor binding
Human 2c receptor-expressing membrane preparations were purchased from PerkinElmer. The

[3] = biological target: T3, P-glycoprotein (MDR1) (Homo sapiens, UniProt P08183); experiment: P-glycoprotein-mediated transcellular transport, LLC-GA5-COL300 cells; format: in vitro ADME; conditions: for susceptibility for P-glycoprotein (substrate or not): assumed criterion: efflux ratio (ER) exceeding 2.00; for efflux ratio at 2 h, 1 µM: human, LLC-PK1, ER=Papp, b to a/Papp, a to b, LLC-GA5-COL300 cells
T3 construct: expressed in transfected cells; host or cells: LLC-GA5-COL300
Protocol: Assays for P-glycoprotein-mediated transcellular transport of compounds LLC-GA5-COL300 cells expressing human P-glycoprotein were seeded at a density of 4.5 × 10^5 cells/cm2 onto polycarbonate membrane filters of 12-well cell culture insert plates and cultured at 37°C in a humidified incubator containing 5% CO2 for 3 days. After each cell monolayer was pre-incubated at 37°C for 20 min in Hank’s balanced salt solution containing 10 mM HEPES (HBSS buffer), transcellular transport experiments were initiated by adding the test compound solution to the apical or basal side of the cell culture inserts. HBSS buffer was sampled from the compartment opposite of that spiked with the test compounds at 0.5, 1, 1.5 and 2 h after initiation of the experiments, and concentrations of the test compounds were determined using LC-MS/MS. The apparent permeability coefficient (Papp) of the test compounds was calculated using the following equation:
Papp= dQ/dt / C0 / A Eq. 1, where dQ/dt represents the rate of permeation of the compounds, C0 is the initial concentration of the test compounds ([…]), and A is the area of the monolayer. The efflux ratio (ER) was defined as […]
ER=Papp, b to a/Papp, a to b Eq. 2, where Papp, b to a and Papp, a to b represent Papp in the basal-to-apical (b to a) and apical-to-basal (a to b) directions, respectively. […]

[4] = Ex vivo pharmacokinetic assessment in the rat brain using LC-MS/MS; conditions: 10 μg/kg intravenous, n = 3
Protocol: The rats were decapitated at 5, 15, 30, 60, and 120 min after intravenous administration of TASP0390136, TASP0390174, TASP0410426, TASP0410427, TASP0410457, or TASP0434988 at a dose of 10 μg/kg. The cerebellum and forebrain, including the medial prefrontal and cingulate cortices and anterior striatum, were dissected and homogenized with four volumes of distilled water. The homogenates were protein-precipitated with methanol/acetonitrile (1:9) and were centrifuged at 3974×g for 10 min at 4 °C. The resultant supernatants were injected into an HPLC (Shimadzu-20AD, Shimadzu, Kyoto, Japan) and a tandem mass spectrometer (API4000, AB SCIEX, Framingham, MA) using a Shim-pak XR-ODS column (3.0 × 30 mm, Shimadzu) at 50 °C. TASP0410457 was eluted with a mobile phase consisting of 10 mM of ammonium acetate/acetonitrile with a linear gradient at a flow rate of 1.3 mL/min, and ammonium formate instead of ammonium acetate was used for eluting the other five compounds. […] The eluted TASP0390136, TASP0390174, TASP0410426, TASP0410427, TASP0410457, and TASP0434988 were ionized using an electrospray interface and were detected using reaction monitoring of the transitions of m/z 395 to 91, 395 to 98, 413 to 98, 425 to 98, 408 to 138, and 407 to 138, respectively. A dihydroquinolinone compound (6-[(1-cyclobutylpiperidin-4-yl)oxy]-1-(3,5-difluorophenyl)-3,4-dihydroquinolin-2(1H)-one) was used as an internal standard for all assays. The lower qualification limit for TASP0410457 was 0.05 ng/g tissue, and the limit for the other five compounds was 0.15 ng/g tissue. Data were expressed as standardized uptake values (SUVs) calculated as follows: SUV=tissueconcentrationg/g×bodyweightg/injecteddoseg

[5] = system: Benzodiazepine (central); experiment: Off-target binding (Cerep); design: unit of the concentration uncertain
Source text: (§1) Off-target binding of compounds assessed using an in-house assay (M4) and a commercial battery (all
(§2) others) (Cerep, Celle L'Evescault, France).
(§3) Concentration % Inhibition Concentration % Inhibition Concentration % Inhibition […]

[6] = system: Ca2+ channel (L, dihydropyridine site); experiment: Off-target binding (Cerep); design: unit of the concentration uncertain
Source text: as §1, §2, §3

[7] = Concentration 10 (unit uncertain)
[8] = Concentration 1 (unit uncertain)

T2 sequence (Q99720 whole entry): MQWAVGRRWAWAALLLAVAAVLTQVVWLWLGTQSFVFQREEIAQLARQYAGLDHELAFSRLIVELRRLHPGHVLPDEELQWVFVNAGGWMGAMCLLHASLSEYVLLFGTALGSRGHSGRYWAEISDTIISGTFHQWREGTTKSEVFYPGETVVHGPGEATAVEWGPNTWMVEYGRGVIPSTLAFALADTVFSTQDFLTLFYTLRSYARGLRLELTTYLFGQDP
T3 sequence (P08183 whole entry): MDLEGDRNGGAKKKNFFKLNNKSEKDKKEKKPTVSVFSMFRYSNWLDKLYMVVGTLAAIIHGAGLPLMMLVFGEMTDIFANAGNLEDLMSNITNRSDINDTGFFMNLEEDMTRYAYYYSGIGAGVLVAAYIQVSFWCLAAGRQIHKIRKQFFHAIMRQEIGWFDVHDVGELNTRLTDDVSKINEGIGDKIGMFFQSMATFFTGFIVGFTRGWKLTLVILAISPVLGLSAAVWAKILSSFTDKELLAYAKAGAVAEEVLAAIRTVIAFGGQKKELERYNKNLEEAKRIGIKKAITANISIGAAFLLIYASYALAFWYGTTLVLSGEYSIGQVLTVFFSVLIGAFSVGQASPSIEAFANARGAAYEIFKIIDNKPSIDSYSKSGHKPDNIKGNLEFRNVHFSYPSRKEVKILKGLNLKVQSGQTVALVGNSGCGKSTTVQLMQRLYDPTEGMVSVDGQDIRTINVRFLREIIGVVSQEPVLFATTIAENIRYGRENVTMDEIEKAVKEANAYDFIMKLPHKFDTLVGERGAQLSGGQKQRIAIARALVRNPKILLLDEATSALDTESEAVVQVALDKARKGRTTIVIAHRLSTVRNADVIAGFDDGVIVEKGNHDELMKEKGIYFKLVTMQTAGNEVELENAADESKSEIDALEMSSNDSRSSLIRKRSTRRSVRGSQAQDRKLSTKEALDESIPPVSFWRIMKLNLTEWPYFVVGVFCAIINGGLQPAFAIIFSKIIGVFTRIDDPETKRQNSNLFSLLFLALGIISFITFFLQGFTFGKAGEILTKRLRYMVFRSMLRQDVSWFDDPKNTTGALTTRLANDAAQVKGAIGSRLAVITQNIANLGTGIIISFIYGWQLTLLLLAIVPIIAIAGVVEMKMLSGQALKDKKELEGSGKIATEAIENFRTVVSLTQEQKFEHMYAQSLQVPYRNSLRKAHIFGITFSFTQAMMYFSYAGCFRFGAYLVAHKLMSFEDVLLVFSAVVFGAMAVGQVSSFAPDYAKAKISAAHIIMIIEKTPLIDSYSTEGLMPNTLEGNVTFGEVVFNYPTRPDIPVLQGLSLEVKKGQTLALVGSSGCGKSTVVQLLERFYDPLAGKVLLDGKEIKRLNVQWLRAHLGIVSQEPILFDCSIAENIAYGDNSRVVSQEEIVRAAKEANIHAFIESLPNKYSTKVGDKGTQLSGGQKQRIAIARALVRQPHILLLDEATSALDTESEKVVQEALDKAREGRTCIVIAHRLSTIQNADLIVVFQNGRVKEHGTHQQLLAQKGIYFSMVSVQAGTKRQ
T1 sequence (Q865E1 1-445): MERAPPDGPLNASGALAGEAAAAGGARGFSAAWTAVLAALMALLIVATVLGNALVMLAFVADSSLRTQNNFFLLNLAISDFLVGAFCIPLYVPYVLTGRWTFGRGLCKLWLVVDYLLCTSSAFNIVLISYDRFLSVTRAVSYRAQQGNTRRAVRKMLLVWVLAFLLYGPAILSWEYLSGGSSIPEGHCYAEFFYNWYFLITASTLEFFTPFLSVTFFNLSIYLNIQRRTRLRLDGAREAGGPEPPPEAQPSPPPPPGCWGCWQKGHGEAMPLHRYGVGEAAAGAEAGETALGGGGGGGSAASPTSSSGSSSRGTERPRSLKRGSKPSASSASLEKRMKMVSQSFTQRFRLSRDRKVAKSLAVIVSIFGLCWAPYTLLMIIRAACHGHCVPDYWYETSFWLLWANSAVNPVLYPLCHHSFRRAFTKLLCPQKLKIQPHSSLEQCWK

Row | SMILES | pIC50 [1] | pIC50 [2] | susceptibility for P-glycoprotein (substrate or not) [3] | efflux ratio at 2 h, 1 µM [3] | Mean peak concentration in the forebrain expressed as SUV [4] [SUV] | % Inhibition [5, 7] [%] | % Inhibition [6, 7] [%] | % Inhibition [5, 8] [%] | % Inhibition [6, 8] [%]
1 | COc1ccc(N2C(=O)CCc3cc(OCCCN4CCC[C@H]4C)ccc32)cc1 [TASP0390136, 1-(4-methoxyphenyl)-6-{3-[(2R)-2-methylpyrrolidin-1-yl]propoxy}-3,4-dihydroquinolin-2(1H)-one] | 8.97 | 6.78 | P-glycoprotein substrates | 6.29 | 0.30 | -19 | 20 | – | –
2 | COc1ccc(N2C(=O)CCc3cc(OC4CCN(C5CCC5)CC4)ccc32)cn1 [TASP0410457, 6-[(1-Cyclobutylpiperidin-4-yl)oxy]-1-(6-methoxypyridin-3-yl)-3,4-dihydroquinolin-2(1H)-one] | 8.74 | 6.42 | not a substrate of P-glycoprotein | 1.64 | 0.85 | -4 | -23 | – | –
3 | COc1ccc(N2C(=O)CCc3cc(OC4CCN(C5CCC5)CC4)ccc32)cc1 [TASP0434988, 6-[(1-cyclobutylpiperidin-4-yl)oxy]-1-(4-methoxyphenyl)-3,4-dihydroquinolin-2(1H)-one] | 9.25 | 6.59 | P-glycoprotein substrates | 2.14 | 0.58 | – | – | -2 | -27
